≈ marks a conversion by molar mass, not a printed value.

The target of assay [1] is T1, Epidermal growth factor receptor (Homo sapiens, UniProt P00533). The experiment in a line: Inhibition of epidermal growth factor receptor kinase autophosphorylation.
The target in assay [2] is T1, Epidermal growth factor receptor. The experiment in a line: Inhibition of peptide substrate phosphorylation by epidermal growth factor receptor.
For a further assay, the system named is A-431. Kind of assay: Inhibition of A431 human carcinoma cell proliferation. The class given is functional, cell-based.
A further assay concerns SK-BR-3. The experiment in a line: Inhibition of SKBr3 human carcinoma cell proliferation. The class given is functional, cell-based.
Another assay concerns SW-620. The experiment in a line: Inhibition of SW620 human carcinoma cell proliferation. The class given is functional, cell-based.

T1 sequence (P00533 whole entry): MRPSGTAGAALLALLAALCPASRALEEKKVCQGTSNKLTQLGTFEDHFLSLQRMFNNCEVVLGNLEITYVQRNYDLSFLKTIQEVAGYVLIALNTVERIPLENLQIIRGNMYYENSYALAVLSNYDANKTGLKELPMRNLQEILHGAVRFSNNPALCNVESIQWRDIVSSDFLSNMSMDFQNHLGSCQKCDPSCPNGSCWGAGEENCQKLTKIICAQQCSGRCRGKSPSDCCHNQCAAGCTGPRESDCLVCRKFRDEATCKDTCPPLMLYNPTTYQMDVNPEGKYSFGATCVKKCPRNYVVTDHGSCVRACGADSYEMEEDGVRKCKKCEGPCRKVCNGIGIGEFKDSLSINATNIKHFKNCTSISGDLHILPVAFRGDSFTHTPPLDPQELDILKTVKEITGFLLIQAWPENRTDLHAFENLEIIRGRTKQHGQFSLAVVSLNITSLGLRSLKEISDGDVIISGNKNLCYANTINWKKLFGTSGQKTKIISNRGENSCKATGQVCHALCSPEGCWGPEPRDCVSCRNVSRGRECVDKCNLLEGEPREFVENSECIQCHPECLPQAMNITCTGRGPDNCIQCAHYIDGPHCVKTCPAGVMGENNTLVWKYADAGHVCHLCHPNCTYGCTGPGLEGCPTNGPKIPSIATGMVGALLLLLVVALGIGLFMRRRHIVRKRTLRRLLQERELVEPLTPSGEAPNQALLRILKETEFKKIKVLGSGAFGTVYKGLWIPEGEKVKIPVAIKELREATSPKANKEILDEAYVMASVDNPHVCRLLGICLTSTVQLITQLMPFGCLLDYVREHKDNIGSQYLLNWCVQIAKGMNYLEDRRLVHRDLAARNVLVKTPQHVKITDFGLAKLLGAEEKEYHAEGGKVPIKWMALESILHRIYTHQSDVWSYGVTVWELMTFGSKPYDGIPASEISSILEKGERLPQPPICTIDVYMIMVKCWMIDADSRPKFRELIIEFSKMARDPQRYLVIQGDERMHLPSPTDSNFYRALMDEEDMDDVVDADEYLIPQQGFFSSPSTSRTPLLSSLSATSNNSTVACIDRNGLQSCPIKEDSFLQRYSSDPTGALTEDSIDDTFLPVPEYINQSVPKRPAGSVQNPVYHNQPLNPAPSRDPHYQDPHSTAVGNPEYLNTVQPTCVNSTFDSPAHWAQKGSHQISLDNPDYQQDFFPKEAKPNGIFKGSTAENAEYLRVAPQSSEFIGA

A word on the IC50: it is the concentration that gives 50% inhibition. As for `C=CC(=O)Nc1ccc2ncc(C#N)c(Nc3cccc(Br)c3)c2c1`, the IC50 came to 86.9 nM in assay [1] and 9.7 nM in assay [2].
For `C=CC(=O)Nc1cnc2ncc(C#N)c(Nc3cccc(Br)c3)c2c1`, in that order: 976 nM and 375 nM.
For `CC#CC(=O)Nc1ccc2ncc(C#N)c(Nc3cccc(Br)c3)c2c1`, in that order: more than 1000 nM and 259 nM.
In the same order, the values of `CC#CC(=O)Nc1cnc2ncc(C#N)c(Nc3ccc(F)c(Cl)c3)c2c1` are 6790 nM and 3760 nM.
For `CN(C)C/C=C/C(=O)Nc1ccc2ncc(C#N)c(Nc3cccc(Br)c3)c2c1`, the IC50 amounted to 123 nM in assay [1]; 0.23 µg/mL (≈ 0.511 µM) in the assay with A-431; 0.089 µg/mL (≈ 0.198 µM) in the assay on SK-BR-3; 37.2 nM in assay [2]; 2.8 µg/mL (≈ 6.22 µM) in the assay with SW-620.
`CN(C)CCOc1cc2c(Nc3cccc(Br)c3)c(C#N)cnc2cn1`: the IC50 in assay [1] and in assay [2] was more than 10000 nM each time.
As to `CN(C)C/C=C/C(=O)Nc1cc2c(Nc3cccc(Br)c3)c(C#N)cnc2cn1`, the IC50 was determined as 8.6 nM in assay [1]; 0.088 µg/mL (≈ 0.195 µM) in the assay with A-431; 0.036 µg/mL (≈ 0.0798 µM) in the assay with SK-BR-3; 1.9 nM in assay [2]; 0.356 µg/mL (≈ 0.789 µM) in the assay with SW-620.
Turning to `CN(C)CCOc1cc2c(Nc3ccc(F)c(Cl)c3)c(C#N)cnc2cn1`, the IC50 in assay [1] and in assay [2] was more than 10000 nM throughout.
Regarding `CC#CC(=O)Nc1cnc2ncc(C#N)c(Nc3cccc(Br)c3)c2c1`, the IC50 was more than 10000 nM in assay [1] and 6270 nM in assay [2].
In the case of `CC#CC(=O)Nc1ccc2ncc(C#N)c(Nc3ccc(F)c(Cl)c3)c2c1`, the half-maximal inhibitory concentration (IC50) in assay [1] was 1030 nM; in assay [2], 330 nM.
With `CN(C)C/C=C/C(=O)Nc1cnc2ncc(C#N)c(Nc3cccc(Br)c3)c2c1`, the IC50 was 4130 nM in assay [1]; 2.76 µg/mL (≈ 6.12 µM) in the assay on A-431; 4.83 µg/mL (≈ 10.7 µM) with SK-BR-3; 2040 nM in assay [2]; more than 5 µg/mL with SW-620.
